Data set [1] is described as follows: Ex vivo stability in mouse blood (remaining MMP-9 inhibitory activity). It is filed as in vitro ADME. Particulars: 500 µM in freshly isolated mouse blood, 37 °C; plasma and cell lysates. The procedure: (§1) Toxicity of compounds 5 and 7 was evaluated in vitro on the U-87 cell line. Briefly, U-87 cells were seeded in 96-well plates (cat. No. 92096, TPP Techno Plastic Products, Trasadingen, Switzerland) at 2000 cells/well in DMEM FluoroBrite containing 10% FBS and incubated for 24 h. Cells were washed and further grown in DMEM FluoroBrite with 5% KnockOut™ Serum Replacement (Gibco, Waltham, MA, USA). Compounds 5 and 7 were added to the wells in a 1:2 dilution series starting at 20 µM and ending at 0.16 µM. To evaluate the effect of the compound on cell growth, confluence was determined every hour for 17h using the Incucyte® S3 Live-Cell Analysis System (Sartorius, Göttingen, Germany). Next, cells were stained with the LIVE/DEAD™ Viability/Cytotoxicity Kit for mammalian cells (Invitrogen, Carlsbad, CA, USA; cat. # L3224) and cell viability was evaluated. Data were normalized to the mean confluence of wells containing no inhibitors. To measure the stability of the compounds, fresh blood was collected from heathy mice by cardiac puncture with a heparin-coated needle and syringe and 30UI/mL heparin was added. Next, compound 5, compound 7 or vehicle (DMSO) was added to the blood at a final concentration of 500 µM and incubated at 37 °C. […] Background inhibition was subtracted and results were expressed as percentage inhibition.

Data set [2] concerns U-87 cell line. In words: U-87 cell proliferation (confluence, Incucyte). The class given is cell-based. The note with it: up to a concentration of 20 µM; 17 h. How it is done:
as §1

The test system of data set [3] is U-87 cell line. In words: U-87 cell viability (LIVE/DEAD). The class given is cell-based. The note with it: up to a concentration of 20 µM; 17 h. The procedure:
as §1

For data set [4], the target named is T1, recombinant human MMP-9 monomers (Homo sapiens, UniProt P14780).
T1 construct: made in house; host or cells: Sf9 insect cells
T1 sequence (P14780 107-707 limits assumed): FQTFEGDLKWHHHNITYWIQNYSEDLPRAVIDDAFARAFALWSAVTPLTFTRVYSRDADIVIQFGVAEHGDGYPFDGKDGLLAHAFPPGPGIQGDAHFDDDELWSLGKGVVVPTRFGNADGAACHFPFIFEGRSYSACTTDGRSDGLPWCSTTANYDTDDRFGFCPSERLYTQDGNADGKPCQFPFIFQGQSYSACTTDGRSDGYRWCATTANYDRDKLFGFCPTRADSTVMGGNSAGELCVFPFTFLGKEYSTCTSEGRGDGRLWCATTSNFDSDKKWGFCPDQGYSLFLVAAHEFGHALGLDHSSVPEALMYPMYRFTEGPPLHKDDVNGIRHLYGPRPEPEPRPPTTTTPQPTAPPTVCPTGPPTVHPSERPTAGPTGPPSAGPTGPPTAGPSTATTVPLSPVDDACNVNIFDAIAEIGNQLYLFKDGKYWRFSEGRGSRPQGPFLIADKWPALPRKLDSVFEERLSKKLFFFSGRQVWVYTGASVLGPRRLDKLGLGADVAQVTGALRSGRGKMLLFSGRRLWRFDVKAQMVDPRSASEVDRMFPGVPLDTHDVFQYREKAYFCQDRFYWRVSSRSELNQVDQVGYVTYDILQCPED
In words: Gelatin degradation assay, recombinant MMP-9 monomers. Particulars: recombinant human MMP-9 (Sf9) mono. The class given is biochemical. How it is done: (§2) Compounds 5 and 7 were synthesized as previously reported. Full-length human proMMP-9 was produced by recombinant expression in Sf9 insect cells and purified by gelatin-Sepharose chromatography as previously described. Stable full-length proMMP-9 monomers and trimers were separated by glycerol gradient ultracentrifugation as previously described. ProMMP-9 mixture and the separated monomers and trimers were activated by incubation with the catalytic domain of MMP-3 (cat. No. 444217, Merck Millipore, Darmstadt, Germany) as previously described. Activation of proMMP-9 was confirmed by a band shift of ±10 kDa, corresponding to the removal of the auto-inhibitory propeptide domain and by detection of gelatinolytic activity with a previously described gelatin degradation assay. MMP-9 monomers and trimers purified from human neutrophils were purchased (Cat. No. 444,231 and 444232, Sigma-Aldrich, St. Louis, MO, USA). Examples of sample purities and activations can be found in Supplementary Figure S1. Recombinant human proMMP-2 (CHO cell-derived), proMMP-3 (NS0 cell-derived), proMMP-7 (NS0 cell-derived) and proMMP-8 (NS0 cell-derived) were purchased from R & D systems (Minneapolis, MN, USA), dissolved in assay buffer (150 mM NaCl, 5 mM CaCl2, 0.01% Tween-20, 50 mM Tris, pH 7.4) to a concentration of 100 µg/mL and activated by incubation with 1 mM p-aminophenylmercuric acetate for, respectively, 1h, 6h, 2h and 1h. Activation of MMPs was confirmed by a band shift of approximately 10 kDa, corresponding to the removal of the propeptide domain. MMP-14/MT1-MMP (NS0 cell-derived) was also purchased from R & D systems (Minneapolis, MN, USA) and activated by incubation with recombinant human furin (cat. No. 1503-SE-010, R & D systems, Minneapolis, MO, USA) in activation buffer (50 mM Tris, 1 mM CaCl2, 0.5% Brij-35, pH 9) for 1.5 h and activity was tested in assay buffer (50 mM Tris, 3 mM CaCl2, 1 µM ZnCl2, pH 8.5). Active human neutrophil elastase (NE) was purchased from Abcam (Cambridge, UK) and for activity assays of NE the assay buffer was replaced by 200 mM Tris, pH 8.8. ADAM17/TACE (Sf 21 (baculovirus)-derived, R & D systems, Minneapolis, MO, USA) was diluted and evaluated in 25 mM Tris, 2.5 μM ZnCl2, 0.005% Brij-35, pH 9.0. All stocks of the compounds were evaluated for the presence of endotoxin using the EndoZyme II assay (Hyglos bioMérieux, Bernried am Starnberger See, Germany). Endotoxin levels in all concentrated stocks (2.5 mg/mL) were below the accepted limit of 0.5 EU/mL.
(§3) To determine the inhibition of gelatinolytic activity, we used a previously optimized gelatin degradation assay. Activated MMP-9, activated MMP-2, neutrophil elastase or supernatants of stimulated neutrophils, were incubated with different concentrations of inhibitors and incubated for 30 min at 37 °C. Next, dye-quenched gelatin (DQ™-gelatin, Invitrogen, Carlsbad, CA, USA) was added at a final concentration of 2.5 µg/mL and the increase in fluorescence over time was measured with the CLARIOstar microplate reader (BMG Labtech, Ortenberg, Germany). For other MMPs, the OmniMMP substrate peptide (Mca-PLGL-Dpa-AR-NH2, cat. no. BML-P126-0001, Enzo Life Sciences, Farmingdale, NY, USA) was used at a final concentration of 2.5 µg/mL. For ADAM17 the fluorogenic peptide Mca-PLAQAV-Dpa-RSSSR-NH2 (ES003, R & D systems, Minneapolis, MO, USA) and for neutrophil elastase the fluorogenic substrate MeOSuc-AAPV-AMC (cat. no. 324740, Merck Millipore, Darmstadt, Germany) were used. Proteolytic activity was determined by linear regression of the fluorescence curve and the percentage inhibition was calculated through comparison with the positive control (no inhibitors). When testing supernatants from human neutrophils, the assay was performed in the presence of 20 µM neutrophil elastase inhibitor (Elastase Inhibitor IV, Calbiochem, Darmstadt, Germany).

Data set [5] addresses T2, MMP-3 (Homo sapiens, UniProt P08254).
T2 construct: purchased R & D systems; host or cells: NS0 cells
In words: MMP-3 OmniMMP peptide assay. Particulars: OmniMMP substrate peptide. The class given is biochemical. How it is done:
Compounds 5 and 7 were synthesized as previously reported. Full-length human proMMP-9 was produced by recombinant expression in Sf9 insect cells and purified by gelatin-Sepharose chromatography as previously described. Stable full-length proMMP-9 monomers and trimers were separated by glycerol gradient ultracentrifugation as previously described. ProMMP-9 mixture and the separated monomers and trimers were activated by incubation with the catalytic domain of MMP-3 (cat. No. 444217, Merck Millipore, Darmstadt, Germany) as previously described. […] ADAM17/TACE (Sf 21 (baculovirus)-derived, R & D systems, Minneapolis, MO, USA) was diluted and evaluated in 25 mM Tris, 2.5 μM ZnCl2, 0.005% Brij-35, pH 9.0. All stocks of the compounds were evaluated for the presence of endotoxin using the EndoZyme II assay (Hyglos bioMérieux, Bernried am Starnberger See, Germany). […]
To determine the inhibition of gelatinolytic activity, we used a previously optimized gelatin degradation assay. […] Next, dye-quenched gelatin (DQ™-gelatin, Invitrogen, Carlsbad, CA, USA) was added at a final concentration of 2.5 µg/mL and the increase in fluorescence over time was measured with the CLARIOstar microplate reader (BMG Labtech, Ortenberg, Germany). […]

Data set [6] concerns the target T3, recombinant human MMP-9 mixture (± 70% monomers and ± 30% trimers) (Homo sapiens, UniProt P14780).
T3 construct: made in house; host or cells: Sf9 insect cells
In words: Gelatin degradation assay, recombinant MMP-9 mixture. The class given is biochemical. Particulars: recombinant human MMP-9 (Sf9) mix, best-fit value. The procedure:
as §2, §3

T3 sequence (P14780 107-707 limits assumed): as above
T2 sequence (P08254 100-477): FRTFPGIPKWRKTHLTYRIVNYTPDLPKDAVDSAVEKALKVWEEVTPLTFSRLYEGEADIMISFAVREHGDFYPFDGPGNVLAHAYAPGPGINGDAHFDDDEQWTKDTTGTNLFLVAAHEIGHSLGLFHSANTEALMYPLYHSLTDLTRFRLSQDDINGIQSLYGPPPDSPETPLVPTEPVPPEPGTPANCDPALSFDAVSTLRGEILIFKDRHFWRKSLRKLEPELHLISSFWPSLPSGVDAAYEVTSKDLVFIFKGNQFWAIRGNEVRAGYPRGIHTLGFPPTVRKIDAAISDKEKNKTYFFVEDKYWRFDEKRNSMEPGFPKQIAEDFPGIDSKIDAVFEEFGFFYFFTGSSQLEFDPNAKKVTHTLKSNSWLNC

With `CC(C)[C@H](C(=O)O)N(CCNC(=O)c1cccc(C(=O)NCCN([C@@H](C(=O)O)C(C)C)S(=O)(=O)c2ccc(-c3ccccc3)cc2)c1)S(=O)(=O)c1ccc(-c2ccccc2)cc1` [Compound 7], in data set [1], the “ex vivo stability: remaining MMP-9 inhibitory activity” value is recorded as “remained detectable up to 24h later”. For the same molecule, the “effect on proliferation of U-87 cells” value in data set [2] is recorded as “did not reduce proliferation”. The “cellular toxicity (cell viability of U-87 cells)” value in data set [3] was “nor did they induce cellular toxicity”. In data set [4], the concentration for an effect of 25% (IC25) stood at 48 nM, the IC50 was found to be 191 nM and the 75% effect concentration (IC75) was 754 nM. Besides, inhibition in data set [5] was half-maximal at 7.7 nM (IC50). In data set [6], the IC25 was 28 nM, the IC50 was 182 nM and the IC75 worked out at 627 nM.
Turning to `CC(C)[C@H](C(=O)O)N(CCNC(=O)c1ccccc1)S(=O)(=O)c1ccc(-c2ccccc2)cc1` [Compound 5], the “ex vivo stability: remaining MMP-9 inhibitory activity” value in data set [1] is recorded as “remained detectable up to 24h later”. Further, the “effect on proliferation of U-87 cells” value in data set [2] is recorded as “did not reduce proliferation”. For the same molecule, the “cellular toxicity (cell viability of U-87 cells)” value in data set [3] is reported as “nor did they induce cellular toxicity”. Moreover, in data set [4], the IC25 is 392 nM, the IC50 is 1520 nM and the IC75 was determined as 5859 nM. In addition, the IC50 in data set [5] was 965 nM. Also, in data set [6], the IC25 is 359 nM, the IC50 amounted to 1410 nM and the IC75 was 5509 nM.

The values above are taken from PMC7408547, “Bivalent Inhibitor with Selectivity for Trimeric MMP-9 Amplifies Neutrophil Chemotaxis and Enables Functional Studies on MMP-9 Proteoforms” (Cells, 2020).
